{"source": "patent EP0955049B1", "about": "“6 Beta-Hydroxy - 6 alpha, 17 alpha - dimethylpregn - 4 - ene - 3,20 - dione, as an inhibitor of smooth muscle proliferation” (Wyeth, priority 1994, dated 1995)", "tested_on": "Primary rat aorta smooth muscle cell cultures", "experiment": "smooth muscle cell proliferation ([3H]-thymidine incorporation)", "format": "cell-based", "settings": "[3H]-thymidine (0.5 µCi/mL), 24 hours at 37°C, M 199 plus 10% fetal bovine serum, cells per well as percent of control", "source_text": "This utility was established by subjecting the compound to the following standard experimental test procedure:\nPrimary rat aorta smooth muscle cell cultures grown in media 199 (Gibco ) plus 10% fetal bovine serum (Gibco) were washed with calcium, magnesium free Dulbecco's phosphate buffered saline and trypsinized for five minutes. Cells were scraped from culture dishes with a rubber policeman and centrifuged. Cells were resuspended in M 199 plus 10% fetal bovine serum containing [^3H)-thymidine (0.5 µCi/mL) at 8-15,000 cells/mL, and were placed into plate wells. The novel intermediate was added to each well and the plates were incubated for 24 hours at 37°C. in a 5% CO2 atmosphere. The cultured cells were treated with trichloracetic acid to remove acid soluble proteins, leaving only cell superstructure and DNA. These cells were solubilized, counted by scintillation and the results compared with control to determine the number of cells per well, the difference in cells being expressed as a percent of control.", "data": [{"compound": "CC(=O)[C@@]1(C)CC[C@H]2[C@@H]3C[C@@](C)(O)C4=CC(=O)CC[C@]4(C)[C@H]3CC[C@@]21C", "note": "[6β - Hydroxy - 6α,17α - dimethylpregn - 4 - ene - 3,20 - dione]", "values": [{"measurement": "IC50", "value": 26.4, "unit": "µM"}]}]}
